Measured values published in patent publication US20180201609A1 (AURIGENE DISCOVERY TECHNOLOGIES LIMITED, priority 2015, published 2018).
Counter-ions that a name gives are not always drawn.

Target: T1, IRAK-4 enzyme (Homo sapiens, UniProt Q9NWZ3)
T1 construct: purchased Millipore, USA
T1 sequence (Q9NWZ3 1-460): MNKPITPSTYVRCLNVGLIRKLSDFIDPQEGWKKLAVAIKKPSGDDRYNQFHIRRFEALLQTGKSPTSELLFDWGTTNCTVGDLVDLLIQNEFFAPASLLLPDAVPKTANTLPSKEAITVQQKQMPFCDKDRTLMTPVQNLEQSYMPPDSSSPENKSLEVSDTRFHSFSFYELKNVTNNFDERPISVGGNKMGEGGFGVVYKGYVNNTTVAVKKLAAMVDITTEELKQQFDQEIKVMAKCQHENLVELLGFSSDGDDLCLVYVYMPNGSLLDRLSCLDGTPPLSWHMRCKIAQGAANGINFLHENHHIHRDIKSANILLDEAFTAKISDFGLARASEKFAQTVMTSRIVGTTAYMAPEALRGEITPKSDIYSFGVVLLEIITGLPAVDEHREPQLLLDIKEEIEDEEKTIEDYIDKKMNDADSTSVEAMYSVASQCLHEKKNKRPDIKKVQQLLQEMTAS
Assay: IRAK-4 Biochemical Assay (TR-FRET)
Settings: recombinant IRAK-4 kinase, 20 μM ATP; for inhibition at 0.1 µM: 0.1 μM compound; for inhibition at 1 µM: 1 μM compound
Procedure: Compounds were tested for their potential to inhibit IRAK-4 enzyme in a TR-FRET assay using recombinant IRAK-4 kinase from Millipore, USA. The assay buffer was 50 mM Tris-HCl pH 7.5, 20 mM MgCl2, 1 mM EGTA, 2 mM DTT, 3 mM MnCl2 and 0.01% Tween 20.5 ng of IRAK-4 kinase was used for the assay. After pre-incubation of enzyme with test compound for 30 minutes at room temperature, a substrate mixture containing 100 nM Biotin Histone H3 (Millipore, USA) and 20 μM ATP (Sigma, USA) was added and the reaction was incubated for 30 min. Post incubation, the reaction was stopped by the addition of stop mix containing 40 mM EDTA, 1 nM of Europium-Anti-Phospho-Histone H3 (Ser10) antibody (Perkin Elmer, USA) and 20 nM SureLight Allophycocyanin-Streptavidin (Perkin Elmer, USA). The fluorescence emission at 615 nm and 665 nm were measured at an excitation of 340 nm and the percent inhibition was estimated from the ratio of the fluorescence intensities [(F665/F615)×10000].
The compounds of the present invention were screened in the above mentioned assay and the percent inhibition data is summarized in the Table 1.

Row | Compound | inhibition at 0.1 µM [%] | inhibition at 1 µM [%]
1 | Cc1nn(C)c2cc(N3CCC(CO)CC3)c(NC(=O)c3coc(-c4cc(N)ncc4Cl)n3)cc12 [Example 38, 2-(2-amino-5-chloropyridin-4-yl)-N-(6-(4-(hydroxymethyl)piperidin-1-yl)-1,3-dimethyl-1H-indazol-5-yl)oxazole-4-carboxamide hydrochloride] | 50 | 90
2 | Cc1nn(C)c2cc3c(cc12)NC(=O)c1coc(n1)-c1ccnc(c1)NCCCOCC1CCN3CC1 [Example 39, (Z)-51,53-dimethyl-51H-8-oxa-4,12-diaza-2(2,4)-oxazola-5(5,6)-indazola-1(4,2)-pyridina-6(1,4)-piperidinacyclododecaphan-3-one] | 4 | 72
3 | Cn1cc2cc(NC(=O)c3ccc(N4CCC(O)C4)cn3)c(N3CCCCC3)nc2n1 (stereo not drawn) [Example 40, 5-(3-hydroxypyrrolidin-1-yl)-N-(2-methyl-6-(piperidin-1-yl)-2H-pyrazolo[3,4-b]pyridin-5-yl)picolinamide] | 0 | 57
4 | Cn1cc2cc(NC(=O)c3coc(-c4cccc(N)n4)n3)c(N3CCCCC3)cc2n1 [Example 41, 2-(6-aminopyridin-2-yl)-N-(2-methyl-6-(piperidin-1-yl)-2H-indazol-5-yl)oxazole-4-carboxamide] | 96 | 97
5 | Cn1cc2cc(NC(=O)c3coc(-c4cccc(N)n4)n3)c(N3CCOCC3)cc2n1 [Example 42, 2-(6-aminopyridin-2-yl)-N-(2-methyl-6-morpholino-2H-indazol-5-yl)oxazole-4-carboxamide] | 86 | 97
6 | Cn1cc2cc(NC(=O)c3cccc(-c4ccnc(N)c4)n3)c(N3CCCCC3)cc2n1 [Example 43, 2′-amino-N-(2-methyl-6-(piperidin-1-yl)-2H-indazol-5-yl)-[2,4′-bipyridine]-6-carboxamide hydrochloride] | 97 | 96
7 | Cn1cc2cc(NC(=O)c3cccc(-c4ccc(N)nc4)n3)c(N3CCCCC3)cc2n1 [Example 44, 6′-amino-N-(2-methyl-6-(piperidin-1-yl)-2H-indazol-5-yl)-[2,3′-bipyridine]-6-carboxamide] | 98 | 97
8 | COc1ccc(C(=O)Nc2cc3cn(C)nc3cc2N2CCCCC2)nc1-c1ccnc(N)c1 [Example 45, 2′-amino-3-methoxy-N-(2-methyl-6-(piperidin-1-yl)-2H-indazol-5-yl)-[2,4′-bipyridine]-6-carboxamide] | 9 | 27
9 | Cn1cc2cc(NC(=O)c3cccc(-c4cccc(N)n4)n3)c(N3CCCCC3)cc2n1 [Example 46, 6′-amino-N-(2-methyl-6-(piperidin-1-yl)-2H-indazol-5-yl)-[2,2′-bipyridine]-6-carboxamide] | 93 | 96
10 | Cn1cc2cc(NC(=O)c3cccc(-c4ccnc(N)n4)n3)c(C3CC3)cc2n1 [Example 47, 6-(2-aminopyrimidin-4-yl)-N-(6-cyclopropyl-2-methyl-2H-indazol-5-yl)picolinamide] | 77 | 95
11 | Cn1cc2cc(NC(=O)c3cccc(-c4ccc(N)nc4)n3)c(C3CC3)cc2n1 [Example 48, 6′-amino-N-(6-cyclopropyl-2-methyl-2H-indazol-5-yl)-[2,3′-bipyridine]-6-carboxamide] | 96 | 98
12 | Cn1cc2cc(NC(=O)c3cccc(-c4ccc(N)nc4)n3)c(N3CCOCC3)cc2n1 [Example 49, 6′-amino-N-(2-methyl-6-morpholino-2H-indazol-5-yl)-[2,3′-bipyridine]-6-carboxamide] | 96 | 97
13 | Cn1cc2cc(NC(=O)c3cccc(-c4ccnc(N)c4)n3)c(N3CCOCC3)cc2n1 [Example 50, 2′-amino-N-(2-methyl-6-morpholino-2H-indazol-5-yl)-[2,4′-bipyridine]-6-carboxamide hydrochloride] | 86 | 95
14 | Cn1cc2cc(NC(=O)c3cccc(-c4cccc(N)n4)n3)c(C3CC3)cc2n1 [Example 51, 6′-amino-N-(6-cyclopropyl-2-methyl-2H-indazol-5-yl)[2,2′-bipyridine]-6-carboxamide hydrochloride] | 57 | 92
15 | Cn1cc2cc(NC(=O)c3cccc(-c4ccnc(N)c4)n3)c(C3CC3)cc2n1 [Example 52, 2′-amino-N-(6-cyclopropyl-2-methyl-2H-indazol-5-yl)-[2,4′-bipyridine]-6-carboxamide] | 93 | 96
16 | Cn1cc2cc(NC(=O)c3cc(-c4ccc(N)nc4)ccn3)c(N3CCCCC3)cc2n1 [Example 53, 6-amino-N-(2-methyl-6-(piperidin-1-yl)-2H-indazol-5-yl)-[3,4′-bipyridine]-2′-carboxamide hydrochloride] | 0 | 13
17 | O=C(Nc1cc2cn(C3CCNCC3)nc2cc1C1CC1)c1cccc(N2CCC(O)C2)n1 (stereo not drawn) [Example 54, N-(6-cyclopropyl-2-(piperidin-4-yl)-2H-indazol-5-yl)-6-(3-hydroxypyrrolidin-1-yl)picolinamide hydrochloride] | 95 | 96
18 | O=C(Nc1cc2cn(CCN3CCOCC3)nc2cc1C1CC1)c1cccc(N2CCC(O)C2)n1 (stereo not drawn) [Example 55, N-(6-cyclopropyl-2-(2-morpholinoethyl)-2H-indazol-5-yl)-6-(3-hydroxypyrrolidin-1-yl)picolinamide] | 92 | 95
19 | CN1CCC(n2cc3cc(NC(=O)c4cccc(N5CCC(O)C5)n4)c(C4CC4)cc3n2)CC1 (stereo not drawn) [Example 56, N-(6-cyclopropyl-2-(1-methylpiperidin-4-yl)-2H-indazol-5-yl)-6-(3-hydroxypyrrolidin-1-yl)picolinamide hydrochloride] | 20 | 71
20 | Cn1cc2cc(NC(=O)c3cccc(N4CC[C@@H](O)C4)n3)c(N3CCCCC3)cc2n1 [Example 57, (R)-6-(3-hydroxypyrrolidin-1-yl)-N-(2-methyl-6-(piperidin-1-yl)-2H-indazol-5-yl)picolinamide] | 96 | 101
21 | Cn1cc2cc(NC(=O)c3cccc(N4CC[C@@H](OC(=O)CN)C4)n3)c(N3CCCCC3)cc2n1 [Example 58, (R)-1-(6-((2-methyl-6-(piperidin-1-yl)-2H-indazol-5-yl)carbamoyl)pyridin-2-yl)pyrrolidin-3-yl glycinate 2,2,2-trifluoroacetate] | 91 | 96
22 | Cc1ccc(C(=O)Nc2cc3cn(C)nc3cc2N2CCCCC2)nc1N1CCC(O)C1 (stereo not drawn) [Example 59, 6-(3-hydroxypyrrolidin-1-yl)-5-methyl-N-(2-methyl-6-(piperidin-1-yl)-2H-indazol-5-yl)picolinamide] | 74 | 91
23 | Cc1ccc(C(=O)Nc2cc3cn(C)nc3cc2N2CCCCC2)nc1N1CCC(O)CC1 [Example 60, 6-(4-hydroxypiperidin-1-yl)-5-methyl-N-(2-methyl-6-(piperidin-1-yl)-2H-indazol-5-yl)picolinamide] | 73 | 97
24 | COCCn1cc2cc(NC(=O)c3cccc(N4CCC(O)C4)n3)c(N3CCCCC3)cc2n1 (stereo not drawn) [Example 61, 6-(3-hydroxypyrrolidin-1-yl)-N-(2-(2-methoxyethyl)-6-(piperidin-1-yl)-2H-indazol-5-yl)picolinamide] | 94 | 97
25 | COc1ccc(C(=O)Nc2cc3cn(C)nc3cc2N2CCCCC2)nc1N1CCC(O)C1 (stereo not drawn) [Example 62, 6-(3-hydroxypyrrolidin-1-yl)-5-methoxy-N-(2-methyl-6-(piperidin-1-yl)-2H-indazol-5-yl)picolinamide] | 9 | 21
26 | Cn1cc2cc(NC(=O)c3ccnc(N4CCC(O)C4)n3)c(N3CCCCC3)cc2n1 (stereo not drawn) [Example 63, 2-(3-hydroxypyrrolidin-1-yl)-N-(2-methyl-6-(piperidin-1-yl)-2H-indazol-5-yl)pyrimidine-4-carboxamide] | 79 | 96
27 | O=C(Nc1cc2cn(CCN3CCOCC3)nc2cc1N1CCCCC1)c1cccc(N2CCC(O)C2)n1 (stereo not drawn) [Example 64, 6-(3-hydroxypyrrolidin-1-yl)-N-(2-(2-morpholinoethyl)-6-(piperidin-1-yl)-2H-indazol-5-yl)picolinamide] | 96 | 97
